Reference: ChEMBL document CHEMBL2440041, “5-Deazaflavin derivatives as inhibitors of p53 ubiquitination by HDM2” (Bioorg Med Chem, 2013)

Target: E3 ubiquitin-protein ligase Mdm2 (Homo sapiens, UniProt Q00987)
Sequence (Q00987 whole entry): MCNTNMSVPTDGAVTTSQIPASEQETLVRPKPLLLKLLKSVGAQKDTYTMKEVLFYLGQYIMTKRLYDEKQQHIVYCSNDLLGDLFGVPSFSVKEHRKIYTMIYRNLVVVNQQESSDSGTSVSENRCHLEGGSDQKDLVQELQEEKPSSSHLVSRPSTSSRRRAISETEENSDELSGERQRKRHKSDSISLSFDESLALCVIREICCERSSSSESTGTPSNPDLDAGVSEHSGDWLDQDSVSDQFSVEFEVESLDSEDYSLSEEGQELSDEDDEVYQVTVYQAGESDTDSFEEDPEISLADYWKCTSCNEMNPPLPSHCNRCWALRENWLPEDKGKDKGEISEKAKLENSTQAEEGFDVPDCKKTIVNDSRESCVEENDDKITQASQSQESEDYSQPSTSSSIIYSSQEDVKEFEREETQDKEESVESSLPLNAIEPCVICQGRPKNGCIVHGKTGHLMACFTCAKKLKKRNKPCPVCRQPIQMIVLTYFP
Description: Inhibition of GST-tagged HDM2 (unknown origin) assessed as p53 ubiquitination by Western blot analysis

Row | IC50 [µM] | SMILES
1 | > 100 | O=c1nc2n(-c3ccc(Cl)cc3)c3cccc(Cl)c3cc-2c(=O)[nH]1
2 | > 75 | O=c1nc2n(-c3ccc(Cl)cc3)c3ccc([N+](=O)[O-])cc3cc-2c(=O)[nH]1
3 | > 100 | O=c1nc2n(-c3ccc(Cl)cc3)c3cc(C(F)(F)F)ccc3cc-2c(=O)[nH]1
4 | > 100 | O=c1nc2n(-c3ccc(Cl)cc3)c3cccc(C(F)(F)F)c3cc-2c(=O)[nH]1
5 | > 50 | O=c1nc2n(-c3ccc(Cl)cc3)c3c([N+](=O)[O-])cccc3cc-2c(=O)[nH]1
6 | > 100 | Cc1ccc2cc3c(=O)[nH]c(=O)nc-3n(-c3ccc(Cl)cc3)c2c1
7 | > 100 | O=c1nc2n(-c3ccccc3F)c3ccc(Cl)cc3cc-2c(=O)[nH]1
8 | > 100 | O=c1nc2n(-c3ccc(Cl)cc3)c3ccc(C(F)(F)F)cc3cc-2c(=O)[nH]1

The remaining lines, values behind:

Row | SMILES | IC50 [µM]
9 | O=c1nc2n(-c3ccc(F)cc3)c3c(C(F)(F)F)cccc3cc-2c(=O)[nH]1 | 13.1
10 | O=c1nc2n(-c3ccccc3F)c3c(C(F)(F)F)cccc3cc-2c(=O)[nH]1 | 19.6
11 | O=c1nc2n(-c3ccccc3)c3c(Cl)cccc3cc-2c(=O)[nH]1 | > 100
12 | O=c1nc2n(-c3ccccc3F)c3cc(C(F)(F)F)ccc3cc-2c(=O)[nH]1 | > 100
13 | O=c1nc2n(-c3ccccc3F)c3c([N+](=O)[O-])cccc3cc-2c(=O)[nH]1 | > 100
14 | O=c1nc2n(-c3ccccc3)c3c(Br)cccc3cc-2c(=O)[nH]1 | > 100
15 | O=c1nc2n(-c3cccc(F)c3)c3c(Cl)cccc3cc-2c(=O)[nH]1 | > 100
16 | O=c1nc2n(-c3cccc(Cl)c3)c3c(Cl)cccc3cc-2c(=O)[nH]1 | > 100
17 | O=c1nc2n(Cc3ccccc3)c3c(C(F)(F)F)cccc3cc-2c(=O)[nH]1 | > 100
